Tests used:
Glomerella cingulata = assay: Fungicidal effect test against fungi causing grape ripe rot disease; details: Colletotrichum gloeosporioides, 72 h, read-out: growth inhibition ratio
Colletotrichum acutatum = assay: Fungicidal effect test against fungi causing apple anthracnose; details: 96 h, read-out: growth inhibition ratio
Botrytis cinerea [1] = type: cell-based; details: 120 h, 25 ppm by volume, Vogel medium, 20° C., five days, dark, read-out: growth inhibition ratio
Botrytis cinerea [2] = assay: Control test of cucumber gray mold (sprayed young cucumber seedlings); type: in vivo; details: 96 h, 125 ppm by mass spray, four days after inoculation
Description: Then, the drug liquid was sprayed onto young cucumber seedlings cultivated in a nursery pot (variety “Jihai”-based, cotyledon stage), and then air-dried. […] They were left still in a moist room at 20° C. Four days after inoculation, leaves of the young cucumber seedlings were visually observed, and the control value was calculated from the lesion area ratio in accordance with the following equation. [formula]

Compound	inhibition of growth at 25 ppm (Glomerella cingulata) [%]	inhibition of growth at 25 ppm (Colletotrichum acutatum) [%]	inhibition of growth at 25 ppm (Botrytis cinerea [1]) [%]	pest or weed control at 125 ppm (Botrytis cinerea [2]) [%]
Cc1ccc(CN(C)NC(=O)c2cc(C)nnc2Oc2cccc(C3CC3)c2F)c(C)c1 [b-2]	≥ 75	≥ 75	≥ 75	–
Cc1ccc(CN(NC(=O)c2cc(C)nnc2Oc2cccc(C3CC3)c2F)C(=O)C(F)(F)F)c(C)c1 [b-4]	≥ 75	≥ 75	≥ 75	–
CC(=O)N(Cc1ccc(C)cc1C)NC(=O)c1c(Oc2cccc(C3CC3)c2F)nnc(Cl)c1C [b-10]	≥ 75	≥ 75	≥ 75	≥ 75
CC(=O)N(Cc1ccc(C)cc1C)NC(=O)c1cc(Cl)nnc1Oc1cccc(C(F)(F)F)c1 [b-11]	≥ 75	≥ 75	≥ 75	–
Cc1cc(C(=O)NN(C=O)Cc2ccc(Cl)cc2Cl)c(Oc2cccc(C3CC3)c2F)nn1 [b-12]	≥ 75	≥ 75	≥ 75	–
COC(=O)N(Cc1ccc(C)cc1C)NC(=O)c1cc(C)nnc1Oc1cccc(C2CC2)c1F [b-17]	≥ 75	≥ 75	≥ 75	–
Cc1ccc(CN(NC(=O)c2cc(C)nnc2Oc2cccc(C3CC3)c2F)C(=O)C(C)(C)C)c(C)c1 [b-19]	–	≥ 75	–	–
Cc1ccc(CN(NC(=O)c2cc(C)nnc2Oc2cccc(C3CC3)c2F)C(=O)c2ccccc2)c(C)c1 [b-24]	≥ 75	≥ 75	≥ 75	–
Cc1ccc(CN(NC(=O)c2cc(C)nnc2Oc2cccc(C3CC3)c2F)C(=O)c2cnn(C)c2)c(C)c1 [b-39]	≥ 75	≥ 75	≥ 75	–
COC(=O)N(Cc1ccc(O)cc1C)NC(=O)c1cc(C)nnc1Oc1cccc(C2CC2)c1F [b-41]	≥ 75	≥ 75	–	–
Cc1ccc(CN(NC(=O)c2cc(C)nnc2Oc2cccc(C3CC3)c2F)C(=O)N(C)C)c(C)c1 [b-47]	≥ 75	≥ 75	–	–
Cc1ccc(CN(NC(=O)c2cc(C)ncc2Oc2cccc(C3CC3)c2F)C(=O)N(C)C)c(C)c1 [b-48]	≥ 75	≥ 75	≥ 75	–
Cc1ccc(CN(NC(=O)c2nc(C)ncc2Oc2cccc(C3CC3)c2F)C(=O)N(C)C)c(C)c1 [b-49]	≥ 75	≥ 75	–	–
COC(=O)N(Cc1ccc(C)cc1C)NC(=O)c1cc(C)nnc1Oc1ccc(C2CC2)cc1 [b-54]	≥ 75	≥ 75	≥ 75	–
Cc1ccc(CN(NC(=O)c2cc(C)nnc2Oc2cccc(C3CC3)c2F)C(=O)C(=O)N(C)C)c(C)c1 [b-56]	≥ 75	≥ 75	–	–
COC(=O)N(Cc1ccc(C)cc1C)NC(=O)c1cc(C)nnc1Oc1ccc2ccccc2c1 [b-61]	≥ 75	≥ 75	≥ 75	–
COC(=O)N(Cc1ccc(C)cc1C)NC(=NO)c1cc(C)nnc1Oc1cccc(C2CC2)c1F [b-63]	≥ 75	≥ 75	≥ 75	–
COc1ccc(CN(NC(=O)c2cc(C)nnc2Oc2cccc(C3CC3)c2F)c2cccc(C)c2)cc1 [b-73]	≥ 75	–	–	–
COC(=O)N(Cc1ccc(C)cc1C)NC(=O)c1cc(C)nnc1Sc1cccc(C(F)(F)F)c1 [b-78, Methyl 1-(2,4-dimethylbenzyl)-2-(6-methyl-3-((3-(trifluoromethyl)phenyl)thio)pyridazine-4-carbonyl)hydrazine-1-carboxylate]	≥ 75	≥ 75	≥ 75	–
COC(=O)C(=O)N(Cc1ccc(C)cc1C)NC(=O)c1cc(C)nnc1Oc1cccc(C2CC2)c1F [b-82]	≥ 75	≥ 75	≥ 75	–
COC(=O)N(CCCc1ccc(C)cc1)NC(=O)c1cc(C)nnc1Oc1cccc(C2CC2)c1F [b-89]	≥ 75	≥ 75	≥ 75	–
COC(=O)N(Cc1ccc(C)cc1C)NC(=O)c1cc(C)nnc1Oc1ccc2cccnc2c1 [b-97]	≥ 75	–	–	–
COC(=O)N(Cc1ccc(C)cc1C)NC(=O)c1cc(C)nnc1Oc1ccc(Br)cc1F [b-98]	–	–	≥ 75	–

Compound	inhibition of growth at 25 ppm (Glomerella cingulata) [%]	inhibition of growth at 25 ppm (Colletotrichum acutatum) [%]	inhibition of growth at 25 ppm (Botrytis cinerea [1]) [%]	pest or weed control at 125 ppm (Botrytis cinerea [2]) [%]
COC(=O)N(Cc1ccc(C)cc1C)NC(=O)c1cc(C)nnc1Oc1ccc(Cl)cc1F [b-99]	–	–	≥ 75	–
COC(=O)N(Cc1sc(Cl)nc1Cl)NC(=O)c1cc(C)nnc1Oc1cccc(C2CC2)c1F [b-120]	≥ 75	≥ 75	≥ 75	–
COC(=O)N(Cc1ccc(C)cc1C)NC(=O)c1nc(C)nnc1Oc1cccc(Br)c1 [b-129]	≥ 75	≥ 75	≥ 75	–
COC(=O)N(Cc1ccc(C)cc1C)NC(=O)c1cc(C)nnc1Oc1cccc(C(C)=O)c1 [b-131]	≥ 75	≥ 75	–	–
COC(=O)N(Cc1ccc(C)cc1C)NC(=O)c1cc(C)nnc1Oc1cccc(C(C)C)c1 [b-132]	≥ 75	≥ 75	–	–
COC(=O)N(Cc1ccc(C)cc1C)NC(=O)c1cc(C)nnc1Oc1cccc(OC(F)(F)F)c1 [b-133]	≥ 75	≥ 75	≥ 75	–
COC(=O)N(Cc1ccc(C)cc1C)NC(=O)c1cc(C)nnc1Oc1cccc(SC)c1 [b-136]	≥ 75	≥ 75	≥ 75	–
COC(=O)N(Cc1ccc(C)cc1C)NC(=O)c1cc(C)nnc1Oc1cccc(N(C)C)c1 [b-137]	≥ 75	≥ 75	–	–
COC(=O)N(Cc1ccc(C)cc1C)NC(=O)c1cnncc1Oc1cccc(C2CC2)c1F [b-142, Methyl 2-(5-(3-cyclopropyl-2-fluorophenoxy)pyridazine-4-carbonyl)-1-(2,4-dimethylbenzyl)hydrazine-1-carboxylate]	≥ 75	≥ 75	≥ 75	–
COC(=O)N(Cc1cnc2ccccc2c1)NC(=O)c1cc(C)nnc1Oc1cccc(C2CC2)c1F [b-161]	≥ 75	≥ 75	–	–
CSC(=O)N(Cc1ccc(C)cc1C)NC(=O)c1cc(C)nnc1Oc1cccc(C2CC2)c1F [b-166, S-methyl 2-(3-(3-cyclopropyl-2-fluorophenoxy)-6-methylpyridazine-4-carbonyl)-1-(2,4-dimethylbenzyl)hydrazine-1-carbothioate]	≥ 75	≥ 75	≥ 75	–
COC(=O)N(NC(=O)c1cc(C)nnc1Oc1cccc(C2CC2)c1F)C1(c2ccc(Br)cc2)CC1 [b-179]	≥ 75	≥ 75	≥ 75	–
COC(=O)N(Cc1ccc(C)cc1C)NC(=O)c1cc(-c2ccc(F)cc2)ncc1Oc1cccc(C2CC2)c1F [b-185]	≥ 75	≥ 75	≥ 75	–
COC(=O)N(Cc1ccc(C)cc1C)NC(=O)c1cc(S(C)(=O)=O)ncc1Oc1cccc(C2CC2)c1F [b-193]	≥ 75	≥ 75	≥ 75	–
COC(=O)N(Cc1ccc(C)cc1C)N(C)C(=O)c1cc(C)nnc1Oc1cccc(C2CC2)c1F [b-195]	≥ 75	≥ 75	≥ 75	–
Cc1cc(C(=O)NN2CCCc3ccccc32)c(Oc2cccc(C3CC3)c2F)nn1 [b-198]	≥ 75	–	–	–
COC(=O)N(Cc1ccc(C)cc1C)NC(=O)c1c(Oc2cccc(Cl)c2F)cncc1Oc1cccc(Cl)c1F [b-203]	≥ 75	≥ 75	–	–
COC(=O)N(Cc1ccc(C)cc1C)NC(=O)c1cc2cncn2nc1Oc1cccc(C2CC2)c1 [b-210, Methyl 2-(2-(3-cyclopropylphenoxy)imidazo[1,5-b]pyridazine-3-carbonyl)-1-(2,4-dimethylbenzyl)hydrazine-1-carboxylate]	≥ 75	≥ 75	–	–
COC(=O)N(Cc1ccc(C)cc1C)NC(=O)c1c(C#N)cncc1Oc1cccc(C2CC2)c1F [b-216]	≥ 75	≥ 75	–	–
COC(=O)N(Cc1ccc(C)cc1C)NC(=O)c1cc(NC(=O)OC(C)(C)C)nnc1Oc1cccc(Cl)c1F [b-218]	–	–	≥ 75	–
COC(=O)N(Cc1ccc(C)cc1C)NC(=O)c1c(Oc2cccc(C3CC3)c2F)cncc1C(C)=O [b-221]	≥ 75	≥ 75	≥ 75	–
COC(=O)N(NC(=O)c1cc(C)nnc1Oc1cccc(C2CC2)c1F)c1ccc(C)s1 [b-222]	≥ 75	–	–	–
COC(=O)N(Cc1ccc(OC)cc1C)NC(=O)c1c(Oc2cccc(C3CC3)c2)cnn(C(C)C)c1=O [b-225]	≥ 75	≥ 75	≥ 75	–

Reference: patent publication US20260198493A1, “HYDRAZIDE COMPOUND AND AGRICULTURAL/HORTICULTURAL FUNGICIDE” (Nippon Soda Co., Ltd., priority 2022, published 2026)
